According to ChEMBL document CHEMBL1201862, “PubChem BioAssay data set” (2004):
Calls of active or inactive are those of the source.

Key:
[1] = target: T1, Zinc finger protein mex-5 (Caenorhabditis elegans, UniProt Q9XUB2); assay: potency of MEX-5 RNA-binding blockers – biochemical, C. elegans, fluorescence polarization, dose response (AID 1960)
T1 sequence (Q9XUB2 whole entry): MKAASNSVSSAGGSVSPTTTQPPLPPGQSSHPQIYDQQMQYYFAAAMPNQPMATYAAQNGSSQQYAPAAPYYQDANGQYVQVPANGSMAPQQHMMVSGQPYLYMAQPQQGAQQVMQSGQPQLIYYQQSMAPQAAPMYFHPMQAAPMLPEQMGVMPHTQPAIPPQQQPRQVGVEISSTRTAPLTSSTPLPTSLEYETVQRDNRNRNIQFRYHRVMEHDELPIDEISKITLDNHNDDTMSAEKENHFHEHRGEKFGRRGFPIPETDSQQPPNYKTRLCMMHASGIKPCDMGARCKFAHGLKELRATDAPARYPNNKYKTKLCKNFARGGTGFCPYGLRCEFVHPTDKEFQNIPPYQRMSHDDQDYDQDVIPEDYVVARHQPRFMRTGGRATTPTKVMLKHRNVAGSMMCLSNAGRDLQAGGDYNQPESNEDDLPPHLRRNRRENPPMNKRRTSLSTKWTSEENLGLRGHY

[2] = target: T2, Corticotropin-releasing factor receptor 2/Corticotropin-releasing factor-binding protein (Homo sapiens, UniProt P24387+Q13324); assay: activators of CRF receptor 2 with binding protein – uHTS hits, confirmation (AID 602473); format: functional; conditions: read-out: EC50_Mean
T2 sequence (Q13324 whole entry): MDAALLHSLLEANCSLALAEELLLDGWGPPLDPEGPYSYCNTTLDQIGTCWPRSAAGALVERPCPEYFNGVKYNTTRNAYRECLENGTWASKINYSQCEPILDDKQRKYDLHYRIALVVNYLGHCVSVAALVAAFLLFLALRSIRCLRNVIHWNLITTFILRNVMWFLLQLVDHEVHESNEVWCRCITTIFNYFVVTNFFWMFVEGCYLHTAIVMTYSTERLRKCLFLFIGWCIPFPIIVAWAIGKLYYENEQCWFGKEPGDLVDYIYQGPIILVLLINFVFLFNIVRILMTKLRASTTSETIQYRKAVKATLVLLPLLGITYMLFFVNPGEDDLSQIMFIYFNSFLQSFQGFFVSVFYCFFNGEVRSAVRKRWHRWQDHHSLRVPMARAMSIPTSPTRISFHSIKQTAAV
T2 sequence (P24387 whole entry): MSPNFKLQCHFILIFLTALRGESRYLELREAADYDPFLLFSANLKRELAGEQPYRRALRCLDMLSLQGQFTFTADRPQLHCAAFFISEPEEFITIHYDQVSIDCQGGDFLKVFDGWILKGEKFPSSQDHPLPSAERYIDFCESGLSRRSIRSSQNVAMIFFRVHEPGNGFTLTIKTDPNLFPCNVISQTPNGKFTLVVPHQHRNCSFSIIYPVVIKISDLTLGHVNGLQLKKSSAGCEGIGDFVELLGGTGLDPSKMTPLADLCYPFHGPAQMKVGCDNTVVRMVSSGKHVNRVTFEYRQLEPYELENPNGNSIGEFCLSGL

[3] = target: T3, RNA-binding protein pos-1 (Caenorhabditis elegans, UniProt G5EF15); assay: disruptors of C. elegans POS-1 RNA interaction – biochemical, fluorescence polarization, dose response (AID 1964);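 further: purified POS-1 fused to maltose binding protein made in E. coli; potency of compounds blocking POS-1 binding to fluorescent RNA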
T3 sequence (G5EF15 whole entry): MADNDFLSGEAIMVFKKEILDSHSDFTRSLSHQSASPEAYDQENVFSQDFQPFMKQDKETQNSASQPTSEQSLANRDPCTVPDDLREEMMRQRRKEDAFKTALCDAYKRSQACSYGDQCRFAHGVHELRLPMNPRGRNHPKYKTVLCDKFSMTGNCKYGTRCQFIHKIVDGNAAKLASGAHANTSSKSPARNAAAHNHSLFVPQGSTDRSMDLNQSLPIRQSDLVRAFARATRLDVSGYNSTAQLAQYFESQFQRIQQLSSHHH

[4] = target: FAD-linked sulfhydryl oxidase ALR (Homo sapiens, UniProt P55789); assay: ALR-catalysed DTT oxidation blockers – biochemical, H2O2 detection, luminescence, cherry-pick, dose response (AID 493248)
Cytochrome P450 3A4 [5] = target: T4, Cytochrome P450 3A4 (Homo sapiens, UniProt P08684); conditions: Potency
Cytochrome P450 2C9 = Cytochrome P450 2C9 (Homo sapiens, UniProt P11712)
Cytochrome P450 3A4 [6] = target: T4, Cytochrome P450 3A4
[7] = NIH-3T3 fibroblast cytotoxicity, dose response, cytotoxicity control, cell-based, fluorescence, Alamar Blue, secondary assay (AID 2327); format: functional;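 further: NIH-3T3 mouse fibroblasts cultured with fluconazole at 8 µg/mL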
[8] = fluconazole-exposed Candida albicans growth modulators – fluorescence, retest, confirmation (AID 2467); format: functional, cell-based
H4 = assay: Luminescence Cell-Based Dose Response HTS to Identify Activators of 5'UTR Stem-Loop Driven Prion Protein mRNA Translation in H4 Neuroglioblastoma Cells. [Related pubchem assays: 1829 (Project Summary), 1814 (Primary HTS)]; format: functional; conditions: Homo sapiens
[9] = Luminescence Cell-Based Dose Confirmation HTS to Identify Activators of 5'UTR Stem-Loop Driven Alpha-Synuclein mRNA Translation in H4 Neuroglioblastoma Cells. [Related pubchem assays: 1829 (Project Summary), 1814 (Primary HTS)]; format: functional
Vero = assay: cells; format: functional; conditions: Chlorocebus sabaeus
[10] = Luminescence Cell-Based Dose Retest to Confirm Inhibitors of Cancer Stem Cells. [Related pubchem assays (depositor defined):AID2717, AID2721]; format: functional; conditions: Homo sapiens
[11] = target: T5, Rac GTPase-activating protein 1 (Homo sapiens, UniProt Q9H0H5); assay: blockers of MgcRacGAP-driven Rac1 GTP hydrolysis – biochemical, ADP Hunter fluorescence, primary and confirmatory, confirmation (AID 624330); format: functional
T5 sequence (Q9H0H5 whole entry): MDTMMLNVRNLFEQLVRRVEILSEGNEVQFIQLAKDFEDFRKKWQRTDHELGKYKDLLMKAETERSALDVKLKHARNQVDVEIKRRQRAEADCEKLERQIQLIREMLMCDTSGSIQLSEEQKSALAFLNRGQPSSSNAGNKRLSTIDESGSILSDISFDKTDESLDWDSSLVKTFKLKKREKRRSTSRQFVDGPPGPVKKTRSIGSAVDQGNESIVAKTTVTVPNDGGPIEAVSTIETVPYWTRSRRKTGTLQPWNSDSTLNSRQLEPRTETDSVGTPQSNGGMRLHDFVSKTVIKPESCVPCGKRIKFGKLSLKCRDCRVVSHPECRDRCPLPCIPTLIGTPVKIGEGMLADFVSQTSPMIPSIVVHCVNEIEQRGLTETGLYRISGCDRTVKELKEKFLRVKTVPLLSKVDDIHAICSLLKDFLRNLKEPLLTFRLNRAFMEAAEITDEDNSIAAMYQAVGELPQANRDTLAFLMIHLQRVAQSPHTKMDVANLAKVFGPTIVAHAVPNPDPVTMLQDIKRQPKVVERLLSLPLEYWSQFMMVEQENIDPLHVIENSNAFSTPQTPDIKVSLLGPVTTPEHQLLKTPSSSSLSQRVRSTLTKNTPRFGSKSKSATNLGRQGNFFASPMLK

[12] = Luminescence Cell-Based Dose Response HTS to Identify Activators of Luciferase Translation or Activity in H4 […] Cells. [Related pubchem assays: 1829 (Project Summary), 1814 (Primary HTS)]; format: functional
Large T antigen = Large T antigen (Simian virus 40, UniProt P03070); format: functional, Betapolyomavirus macacae;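 further: Confirmatory-stage PubChem screen for compounds that inhibit SV40 T antigen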
[13] = Luminescence Cell-Based Dose Response HTS to Identify Inhibitors of 5'UTR Stem-Loop Driven Prion Protein mRNA Translation in H4 Neuroglioblastoma Cells. [Related pubchem assays: 1827 (Project Summary), 1813 (Primary HTS)]; format: functional
[14] = luciferase reporter signal suppression in cells – H4 neuroglioma cells, luminescence, dose response (AID 1990); format: functional, cell-based
[15] = alpha-synuclein stem-loop luciferase translation blockers – H4 neuroglioma cells, luminescence, confirmation (AID 1988); format: functional, cell-based
[16] = viability of uninfected HEp-2 cells – cell-based, HTS, cytotoxicity control for RSV inhibitor project, dose response (AID 2410); format: functional; conditions: human respiratory syncytial virus

Sequence of FAD-linked sulfhydryl oxidase ALR (P55789 whole entry): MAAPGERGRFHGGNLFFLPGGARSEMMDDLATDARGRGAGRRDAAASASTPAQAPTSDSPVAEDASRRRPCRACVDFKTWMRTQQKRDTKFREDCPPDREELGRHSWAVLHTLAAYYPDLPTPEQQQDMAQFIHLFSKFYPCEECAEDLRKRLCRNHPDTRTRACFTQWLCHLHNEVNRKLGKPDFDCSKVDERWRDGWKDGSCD
T4 sequence (P08684 whole entry): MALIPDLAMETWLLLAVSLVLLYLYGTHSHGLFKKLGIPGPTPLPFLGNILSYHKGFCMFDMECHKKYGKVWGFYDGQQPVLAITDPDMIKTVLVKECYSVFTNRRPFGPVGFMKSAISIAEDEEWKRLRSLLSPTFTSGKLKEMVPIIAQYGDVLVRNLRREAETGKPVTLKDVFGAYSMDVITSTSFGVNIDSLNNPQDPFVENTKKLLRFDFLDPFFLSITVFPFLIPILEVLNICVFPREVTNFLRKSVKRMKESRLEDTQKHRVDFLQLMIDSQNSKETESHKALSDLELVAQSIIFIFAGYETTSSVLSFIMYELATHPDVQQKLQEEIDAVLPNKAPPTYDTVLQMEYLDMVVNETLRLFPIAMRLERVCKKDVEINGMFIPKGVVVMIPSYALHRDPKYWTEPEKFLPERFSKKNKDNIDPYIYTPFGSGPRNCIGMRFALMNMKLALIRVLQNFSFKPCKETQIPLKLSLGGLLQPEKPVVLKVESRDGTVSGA
Sequence of Cytochrome P450 2C9 (P11712 whole entry): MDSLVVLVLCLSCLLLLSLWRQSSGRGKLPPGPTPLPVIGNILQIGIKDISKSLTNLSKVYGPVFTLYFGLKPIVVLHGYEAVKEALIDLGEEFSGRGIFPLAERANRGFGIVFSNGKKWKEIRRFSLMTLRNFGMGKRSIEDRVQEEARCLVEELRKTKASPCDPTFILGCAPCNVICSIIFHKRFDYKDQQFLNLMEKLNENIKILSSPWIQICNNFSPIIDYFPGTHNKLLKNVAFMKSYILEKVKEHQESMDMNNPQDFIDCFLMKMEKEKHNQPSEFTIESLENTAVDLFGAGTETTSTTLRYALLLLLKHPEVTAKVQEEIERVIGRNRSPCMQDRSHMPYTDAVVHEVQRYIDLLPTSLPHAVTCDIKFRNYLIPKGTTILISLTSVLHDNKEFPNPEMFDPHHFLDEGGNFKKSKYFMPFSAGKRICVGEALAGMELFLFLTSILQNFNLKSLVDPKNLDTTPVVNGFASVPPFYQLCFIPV
Sequence of Large T antigen (P03070 whole entry): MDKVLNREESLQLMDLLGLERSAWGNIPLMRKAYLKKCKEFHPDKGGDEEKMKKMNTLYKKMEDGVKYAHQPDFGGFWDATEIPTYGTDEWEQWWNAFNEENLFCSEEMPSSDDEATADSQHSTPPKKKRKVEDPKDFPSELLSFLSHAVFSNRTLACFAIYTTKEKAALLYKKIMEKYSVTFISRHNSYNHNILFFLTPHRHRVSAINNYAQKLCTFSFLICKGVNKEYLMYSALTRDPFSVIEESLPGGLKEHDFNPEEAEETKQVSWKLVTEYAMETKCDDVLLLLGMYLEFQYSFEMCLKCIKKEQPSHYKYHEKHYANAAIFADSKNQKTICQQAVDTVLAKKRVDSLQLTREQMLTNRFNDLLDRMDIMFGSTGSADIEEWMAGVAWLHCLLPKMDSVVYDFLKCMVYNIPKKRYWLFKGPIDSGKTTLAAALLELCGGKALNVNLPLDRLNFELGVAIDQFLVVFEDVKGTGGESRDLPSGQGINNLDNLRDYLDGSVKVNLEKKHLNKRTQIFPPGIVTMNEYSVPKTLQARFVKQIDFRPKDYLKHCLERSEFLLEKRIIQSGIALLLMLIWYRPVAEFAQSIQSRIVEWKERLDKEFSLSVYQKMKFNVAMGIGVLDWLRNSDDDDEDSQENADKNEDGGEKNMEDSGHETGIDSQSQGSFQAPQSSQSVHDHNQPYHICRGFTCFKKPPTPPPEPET

CC1=CC(=C(C#N)c2nc3ccccc3s2)C=C(C)N1CC1CCCO1 (stereo unspecified)
EC50 [1]: 13.5 µM (inconclusive) | EC50 [2]: 14.7 µM (active) | EC50 [3]: 12.3 µM (inconclusive)

COc1ccc(N2CC(NC(=O)N3CCN(c4ccccc4)CC3)CC2=O)cc1 (stereo unspecified)
AC50 [4]: 4.41 µM (active)

O=C(OCC1CO1)C1CCCCC1C(=O)OCC1CO1 (stereo unspecified)
AC50 (Cytochrome P450 3A4 [5]): 25.1 µM (inconclusive)

COC(=O)[C@@H]1C[C@H]2CC[C@H](O)C[C@H]2N1Cc1ccc(C(F)(F)F)cc1
AC50 (Cytochrome P450 3A4 [5]): 12.6 µM (inconclusive)

Cc1cc(O)c(C=O)c(O)c1C(=O)O [HAEMATOMMIC ACID]
AC50 (Cytochrome P450 3A4 [5]): 25.1 µM (inconclusive)

O=C(NCc1nnc(S)n1-c1ccc(Cl)c(Cl)c1)c1ccco1
AC50 [4]: 4.14 µM (active)

CCn1c(=N)c(S(=O)(=O)c2ccc(F)cc2)cc2c(=O)n3ccccc3nc21
AC50 (Cytochrome P450 2C9): 22.4 µM (inconclusive) | AC50 (Cytochrome P450 3A4 [6]): 10 µM (inconclusive) | EC50 [1]: 26.2 µM (inconclusive) | EC50 [3]: 7.64 µM (active)

Cc1ccc(C2=CSC3=NNC4(CCCCC4)NN23)cc1
AC50 [4]: 1.86 µM (active) | EC50 [7]: 22.3 µM (inconclusive) | EC50 [8]: 1.76 µM (active) | EC50 (H4): 12.4 µM (active) | EC50 [9]: 9.71 µM (active)

Cc1cccc(/C=C\c2ccccc2)n1
AC50 (Cytochrome P450 3A4 [5]): 15.8 µM (inconclusive)

N#Cc1c(NC(=O)CSc2nc3ccccc3c(=O)n2Cc2ccco2)sc2c1CCCC2
CC50 (Vero): > 25 µM (active)

CCOc1cc(/C=C/c2cccc[n+]2C)ccc1OCC(=O)Nc1ccc(C)cc1
EC50 [1]: > 300 µM (not active) | EC50 [3]: > 300 µM (not active)

Oc1c(Cl)cc(Cl)cc1CNc1ccc(Br)cn1
AC50 [4]: 5.33 µM (active) | AC50 [10]: 2.56 µM (active)

C=C[C@@](C)(O)CC[C@@H]1[C@@]2(C)CCCC(C)(C)[C@@H]2CC[C@@]1(C)O
AC50 (Cytochrome P450 3A4 [5]): 10 µM (inconclusive)

COc1ccc(NC(=O)c2ccc(NCCCN3CCOCC3)c([N+](=O)[O-])c2)cc1
EC50 [1]: > 300 µM (not active) | EC50 [3]: > 300 µM (not active)

COc1ccc(-c2coc3cc(O)ccc3c2=O)c(OC)c1 [2'-METHOXYFORMONETIN]
AC50 (Cytochrome P450 3A4 [5]): 39.8 µM (inconclusive)

COc1cc(/C=N/NC(=O)CCN2CCCCC2)ccc1O
AC50 [4]: 3.05 µM (active) | IC50 [11]: 32.1 µM (active)

CC(=O)c1cc2c(cc1O)OC(C)(C)C=C2
AC50 (Cytochrome P450 3A4 [5]): 31.6 µM (inconclusive)

CCOC(CNC(=O)CCc1c(C)nc2nc(C)nn2c1C)OCC
EC50 [1]: > 300 µM (not active) | EC50 [3]: > 300 µM (not active)

CCOc1ccccc1C1N=C(c2ccc(OC)cc2)CC(c2ccccc2O)N1 (stereo unspecified)
EC50 [12]: 14.3 µM (active) | CC50 (Vero): > 25 µM (active) | EC50 (H4): 12.3 µM (active) | EC50 [9]: 14.2 µM (active)

Nc1cc(Cl)cc(C(=O)O)c1Cl [CHLORAMBEN]
AC50 (Cytochrome P450 3A4 [5]): 25.1 µM (inconclusive)

CN(C)c1ccc(N)cc1
AC50 (Cytochrome P450 3A4 [5]): 15.8 µM (inconclusive)

CCN1C(C)=C(C(=O)OC)C(c2ccccc2)N2C(=O)[C@](O)(C(=O)OC)CC(C#N)=C12 (stereo partly specified)
AC50 (Cytochrome P450 3A4 [5]): 3.98 µM (inconclusive)

CC(=O)c1ccc(S(=O)(=O)NCC(=O)NC(c2nc3ccccc3[nH]2)C(C)C)cc1 (stereo unspecified)
AC50 [4]: 0.113 µM (active)

COc1cc(/C=N/NC2=NCCCCC2)ccc1O
IC50 (Large T antigen): 6.11 µM (active) | AC50 [4]: 0.028 µM (active) | IC50 [11]: 22.5 µM (active)

Cc1ccc(-c2c[nH]c(SCCNC(=O)c3ccco3)n2)cc1
AC50 [4]: 2.88 µM (active)

COc1ccc2c(/C=N/Nc3ccc(C(=O)O)cc3)c[nH]c2c1
AC50 [4]: 1.9 µM (active) | IC50 [11]: 54.9 µM (active)

CC(=O)N1c2ccc(S(=O)(=O)NCC3CCC(C(=O)N4CC(C)CC(C)C4)CC3)cc2CC1C (stereo unspecified)
EC50 [13]: > 120 µM (not active) | EC50 [14]: > 120 µM (not active) | EC50 [15]: > 120 µM (not active)

Cc1ccc2cc(/C=C/C(=O)c3ccco3)c(Cl)nc2c1
CC50 (Vero): 14.3 µM (active) | CC50 [16]: 21.2 µM (active)
